Results: the kinase profiling compilation of Christmann-Franck et al. (2016)
One block for each molecule: values may come before it.

How the values were obtained:
Assay in all cases: KINOMEscan competition binding
Details in all cases: compound 10.0 µM
PAK7 (human) = PAK7 (human) (UniProt Q9P286)
PKMYT1 (human) = PKMYT1 (human) (UniProt Q99640)
BLK (human) = BLK (human) (UniProt P51451)
STK38L (human) = STK38L (human) (UniProt Q9Y2H1)
EPHA4 (human) = EPHA4 (human) (UniProt P54764)
DCLK1 (human) = DCLK1 (human) (UniProt O15075)
MAP4K1 (human) = MAP4K1 (human) (UniProt Q92918)
SRMS (human) = SRMS (human) (UniProt Q9H3Y6)
PRKCE (human) = PRKCE (human) (UniProt Q02156)
WEE1 (human) = WEE1 (human) (UniProt P30291)
BMPR1A (human) = BMPR1A (human) (UniProt P36894)
LATS1 (human) = LATS1 (human) (UniProt O95835)
PRKCH (human) = PRKCH (human) (UniProt P24723)
RPS6KA4 KD1 (human) = RPS6KA4 KD1 (human) (UniProt O75676)
MAPK11 (human) = MAPK11 (human) (UniProt Q15759)
BMX (human) = BMX (human) (UniProt P51813)
Chain of BMX (human) (P51813 whole entry, looked up): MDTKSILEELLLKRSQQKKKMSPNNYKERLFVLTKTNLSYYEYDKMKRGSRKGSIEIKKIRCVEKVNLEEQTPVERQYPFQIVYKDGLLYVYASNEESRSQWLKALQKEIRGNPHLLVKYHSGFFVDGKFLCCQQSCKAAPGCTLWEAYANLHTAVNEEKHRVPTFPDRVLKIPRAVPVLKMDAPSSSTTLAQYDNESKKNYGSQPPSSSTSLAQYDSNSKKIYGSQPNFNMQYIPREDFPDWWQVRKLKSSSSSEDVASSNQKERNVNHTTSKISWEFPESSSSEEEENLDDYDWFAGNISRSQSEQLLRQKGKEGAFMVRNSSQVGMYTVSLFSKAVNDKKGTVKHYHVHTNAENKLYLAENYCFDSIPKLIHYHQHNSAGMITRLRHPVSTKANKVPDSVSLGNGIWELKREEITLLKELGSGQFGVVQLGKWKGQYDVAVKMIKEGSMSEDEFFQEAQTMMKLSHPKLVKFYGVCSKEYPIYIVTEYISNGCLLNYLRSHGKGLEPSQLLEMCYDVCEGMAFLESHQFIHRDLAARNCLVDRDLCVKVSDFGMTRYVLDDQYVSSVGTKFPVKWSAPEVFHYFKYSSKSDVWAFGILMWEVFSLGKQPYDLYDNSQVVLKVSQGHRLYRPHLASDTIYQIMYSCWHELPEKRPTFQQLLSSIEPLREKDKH

MAP3K9 (human) = MAP3K9 (human) (UniProt P80192)
EPHA3 (human) = EPHA3 (human) (UniProt P29320)
Chain of EPHA3 (human) (P29320 whole entry, looked up): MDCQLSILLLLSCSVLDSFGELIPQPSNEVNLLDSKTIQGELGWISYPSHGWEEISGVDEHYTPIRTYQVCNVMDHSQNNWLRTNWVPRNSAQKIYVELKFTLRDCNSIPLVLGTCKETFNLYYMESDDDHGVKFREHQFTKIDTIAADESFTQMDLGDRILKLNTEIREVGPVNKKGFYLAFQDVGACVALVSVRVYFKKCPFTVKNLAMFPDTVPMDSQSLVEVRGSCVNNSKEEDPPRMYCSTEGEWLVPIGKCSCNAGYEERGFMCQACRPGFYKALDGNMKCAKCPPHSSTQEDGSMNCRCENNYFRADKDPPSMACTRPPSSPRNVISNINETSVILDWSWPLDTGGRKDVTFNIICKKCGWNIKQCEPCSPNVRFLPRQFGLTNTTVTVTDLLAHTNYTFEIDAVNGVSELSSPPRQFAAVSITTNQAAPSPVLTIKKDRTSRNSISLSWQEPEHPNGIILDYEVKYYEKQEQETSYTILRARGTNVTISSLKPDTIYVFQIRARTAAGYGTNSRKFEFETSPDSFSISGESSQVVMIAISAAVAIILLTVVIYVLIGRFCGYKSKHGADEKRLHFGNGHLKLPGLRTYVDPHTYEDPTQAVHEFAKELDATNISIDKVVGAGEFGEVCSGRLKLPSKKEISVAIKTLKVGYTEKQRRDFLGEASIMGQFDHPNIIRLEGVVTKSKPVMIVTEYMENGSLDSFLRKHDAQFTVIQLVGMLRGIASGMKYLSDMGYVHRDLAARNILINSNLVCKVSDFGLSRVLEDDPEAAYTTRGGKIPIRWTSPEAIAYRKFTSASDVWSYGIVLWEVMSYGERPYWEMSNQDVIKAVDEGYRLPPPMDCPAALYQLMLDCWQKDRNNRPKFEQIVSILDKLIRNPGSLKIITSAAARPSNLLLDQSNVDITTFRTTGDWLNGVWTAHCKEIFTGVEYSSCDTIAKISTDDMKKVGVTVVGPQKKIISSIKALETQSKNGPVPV

TESK1 (human) = TESK1 (human) (UniProt Q15569)
PAK1 (human) = PAK1 (human) (UniProt Q13153)
PAK6 (human) = PAK6 (human) (UniProt Q9NQU5)
PIK3CA (human) = PIK3CA (human) (UniProt P42336)
WEE2 (human) = WEE2 (human) (UniProt P0C1S8)
MAP3K10 (human) = MAP3K10 (human) (UniProt Q02779)
PRKACA (human) = PRKACA (human) (UniProt P17612)
PIK3CD (human) = PIK3CD (human) (UniProt O00329)
STK35 (human) = STK35 (human) (UniProt Q8TDR2)
Chain of STK35 (human) (Q8TDR2 whole entry, looked up): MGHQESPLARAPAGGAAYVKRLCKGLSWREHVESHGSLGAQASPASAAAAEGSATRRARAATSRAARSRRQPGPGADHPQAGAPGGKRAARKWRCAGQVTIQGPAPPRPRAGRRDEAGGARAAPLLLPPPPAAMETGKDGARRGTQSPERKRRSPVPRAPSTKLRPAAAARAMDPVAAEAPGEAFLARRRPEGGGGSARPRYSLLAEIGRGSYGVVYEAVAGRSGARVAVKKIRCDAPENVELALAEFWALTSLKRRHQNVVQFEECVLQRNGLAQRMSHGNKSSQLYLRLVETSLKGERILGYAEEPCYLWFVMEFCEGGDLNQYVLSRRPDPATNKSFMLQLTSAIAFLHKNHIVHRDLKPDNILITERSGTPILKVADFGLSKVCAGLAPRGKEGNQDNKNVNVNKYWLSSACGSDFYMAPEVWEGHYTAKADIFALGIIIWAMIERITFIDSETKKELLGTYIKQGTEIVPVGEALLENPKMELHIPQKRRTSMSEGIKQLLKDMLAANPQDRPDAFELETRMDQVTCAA

MLTK (human) = MLTK (human) (UniProt Q9NYL2)
PRKX (human) = PRKX (human) (UniProt P51817)
Chain of PRKX (human) (P51817 whole entry, looked up): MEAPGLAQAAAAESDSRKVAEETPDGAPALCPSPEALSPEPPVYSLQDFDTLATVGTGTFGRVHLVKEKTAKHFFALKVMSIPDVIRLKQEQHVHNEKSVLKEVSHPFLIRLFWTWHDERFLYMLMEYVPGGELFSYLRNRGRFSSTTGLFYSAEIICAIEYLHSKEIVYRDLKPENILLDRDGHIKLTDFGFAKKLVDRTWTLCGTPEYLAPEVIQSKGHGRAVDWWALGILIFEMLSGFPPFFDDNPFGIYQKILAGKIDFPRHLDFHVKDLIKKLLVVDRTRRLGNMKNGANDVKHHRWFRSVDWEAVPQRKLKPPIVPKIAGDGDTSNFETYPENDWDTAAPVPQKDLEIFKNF

MAPK7 (human) = MAPK7 (human) (UniProt Q13164)
TGFBR1 (human) = TGFBR1 (human) (UniProt P36897)
MAP3K11 (human) = MAP3K11 (human) (UniProt Q16584)
PRKG2 (human) = PRKG2 (human) (UniProt Q13237)
Chain of PRKG2 (human) (Q13237 whole entry, looked up): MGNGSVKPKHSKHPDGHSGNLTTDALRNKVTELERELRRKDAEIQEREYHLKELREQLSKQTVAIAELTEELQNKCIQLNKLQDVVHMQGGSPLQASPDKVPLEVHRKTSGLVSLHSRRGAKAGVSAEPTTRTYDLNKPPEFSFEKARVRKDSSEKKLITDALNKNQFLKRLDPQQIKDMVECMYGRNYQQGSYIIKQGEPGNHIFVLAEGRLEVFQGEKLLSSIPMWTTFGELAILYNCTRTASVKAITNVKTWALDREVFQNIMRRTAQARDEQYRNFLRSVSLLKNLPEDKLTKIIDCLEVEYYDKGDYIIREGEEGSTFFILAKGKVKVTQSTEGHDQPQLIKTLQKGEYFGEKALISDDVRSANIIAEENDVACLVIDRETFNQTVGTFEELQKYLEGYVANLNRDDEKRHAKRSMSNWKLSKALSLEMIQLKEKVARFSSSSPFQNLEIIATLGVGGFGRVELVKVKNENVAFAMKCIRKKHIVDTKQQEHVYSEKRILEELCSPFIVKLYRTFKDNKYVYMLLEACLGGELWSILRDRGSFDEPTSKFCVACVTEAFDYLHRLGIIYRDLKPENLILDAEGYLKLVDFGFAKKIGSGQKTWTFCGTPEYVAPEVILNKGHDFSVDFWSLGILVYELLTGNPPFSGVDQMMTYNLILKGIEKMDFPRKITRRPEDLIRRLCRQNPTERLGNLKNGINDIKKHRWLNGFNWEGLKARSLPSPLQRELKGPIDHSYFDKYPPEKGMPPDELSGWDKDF

[1] = system: EGFR (human), P00533 [G719C; 746-750 del]
RPS6KA5 KD1 (human) = RPS6KA5 KD1 (human) (UniProt O75582)
EPHA7 (human) = EPHA7 (human) (UniProt Q15375)
ABL1 (human) = ABL1 (human) (UniProt P00519)
[2] = system: ABL1 (human), P00519 [H396P]
EPHA5 (human) = EPHA5 (human) (UniProt P54756)
Chain of EPHA5 (human) (P54756 whole entry, looked up): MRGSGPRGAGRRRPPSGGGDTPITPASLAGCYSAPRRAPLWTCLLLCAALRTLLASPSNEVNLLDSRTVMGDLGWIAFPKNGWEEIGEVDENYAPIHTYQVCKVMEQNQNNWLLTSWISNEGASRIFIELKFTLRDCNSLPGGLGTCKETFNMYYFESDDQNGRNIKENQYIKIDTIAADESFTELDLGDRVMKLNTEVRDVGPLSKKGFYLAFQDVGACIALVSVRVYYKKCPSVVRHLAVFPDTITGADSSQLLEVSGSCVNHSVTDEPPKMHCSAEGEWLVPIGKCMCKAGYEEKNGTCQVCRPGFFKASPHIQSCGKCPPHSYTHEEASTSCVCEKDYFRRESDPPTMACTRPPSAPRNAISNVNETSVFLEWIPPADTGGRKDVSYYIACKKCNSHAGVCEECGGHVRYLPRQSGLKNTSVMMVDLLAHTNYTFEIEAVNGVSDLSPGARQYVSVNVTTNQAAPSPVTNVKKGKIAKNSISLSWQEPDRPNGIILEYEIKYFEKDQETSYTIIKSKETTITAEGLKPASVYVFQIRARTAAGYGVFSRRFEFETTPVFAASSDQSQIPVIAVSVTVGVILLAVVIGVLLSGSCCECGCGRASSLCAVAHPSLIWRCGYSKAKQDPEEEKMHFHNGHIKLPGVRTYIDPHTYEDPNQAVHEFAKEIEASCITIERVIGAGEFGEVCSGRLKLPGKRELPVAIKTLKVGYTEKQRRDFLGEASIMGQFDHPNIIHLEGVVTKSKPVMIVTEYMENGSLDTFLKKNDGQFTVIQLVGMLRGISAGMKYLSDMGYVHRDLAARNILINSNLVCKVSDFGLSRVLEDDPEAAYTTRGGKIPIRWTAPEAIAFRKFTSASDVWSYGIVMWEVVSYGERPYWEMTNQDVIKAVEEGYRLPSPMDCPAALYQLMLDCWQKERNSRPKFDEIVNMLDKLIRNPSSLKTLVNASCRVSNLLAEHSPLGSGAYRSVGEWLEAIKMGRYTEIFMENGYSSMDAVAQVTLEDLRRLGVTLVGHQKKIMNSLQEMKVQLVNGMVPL

FGFR2 (human) = FGFR2 (human) (UniProt P21802)
MAP2K2 (human) = MAP2K2 (human) (UniProt P36507)
CDC42BPA (human) = CDC42BPA (human) (UniProt Q5VT25)

Chain of BLK (human) (P51451 whole entry, looked up): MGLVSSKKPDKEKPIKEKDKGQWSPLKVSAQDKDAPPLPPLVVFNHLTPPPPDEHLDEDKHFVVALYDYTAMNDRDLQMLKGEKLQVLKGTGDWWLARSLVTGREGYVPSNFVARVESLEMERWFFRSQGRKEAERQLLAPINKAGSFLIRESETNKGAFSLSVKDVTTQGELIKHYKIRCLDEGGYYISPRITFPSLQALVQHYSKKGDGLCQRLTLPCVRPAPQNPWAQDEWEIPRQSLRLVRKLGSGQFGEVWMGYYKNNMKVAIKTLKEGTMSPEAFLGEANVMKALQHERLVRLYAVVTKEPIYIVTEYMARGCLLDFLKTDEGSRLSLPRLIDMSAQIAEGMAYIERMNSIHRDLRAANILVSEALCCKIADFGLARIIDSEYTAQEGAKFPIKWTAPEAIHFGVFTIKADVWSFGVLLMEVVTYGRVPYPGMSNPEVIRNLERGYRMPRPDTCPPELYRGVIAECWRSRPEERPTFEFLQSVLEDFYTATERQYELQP

kinase still bound, per cent of control (PAK7 (human)): 71% | kinase still bound, per cent of control (PKMYT1 (human)): 92% | kinase still bound, per cent of control (BLK (human)): 100% | kinase still bound, per cent of control (STK38L (human)): 88% | kinase still bound, per cent of control (EPHA4 (human)): 100% | kinase still bound, per cent of control (DCLK1 (human)): 1.4% | kinase still bound, per cent of control (MAP4K1 (human)): 82% | kinase still bound, per cent of control (SRMS (human)): 76% | kinase still bound, per cent of control (PRKCE (human)): 97% | kinase still bound, per cent of control (WEE1 (human)): 100% | kinase still bound, per cent of control (BMPR1A (human)): 100% | kinase still bound, per cent of control (LATS1 (human)): 79% | kinase still bound, per cent of control (PRKCH (human)): 95% | kinase still bound, per cent of control (RPS6KA4 KD1 (human)): 100% | kinase still bound, per cent of control (MAPK11 (human)): 85% | kinase still bound, per cent of control (BMX (human)): 100% | kinase still bound, per cent of control (MAP3K9 (human)): 100% | kinase still bound, per cent of control (EPHA3 (human)): 71% | kinase still bound, per cent of control (TESK1 (human)): 90% | kinase still bound, per cent of control (PAK1 (human)): 81% | kinase still bound, per cent of control (PAK6 (human)): 74% | kinase still bound, per cent of control (PIK3CA (human)): 97% | kinase still bound, per cent of control (WEE2 (human)): 94% | kinase still bound, per cent of control (MAP3K10 (human)): 97% | kinase still bound, per cent of control (PRKACA (human)): 97% | kinase still bound, per cent of control (PIK3CD (human)): 48% | kinase still bound, per cent of control (STK35 (human)): 89% | kinase still bound, per cent of control (MLTK (human)): 97% | kinase still bound, per cent of control (PRKX (human)): 82% | kinase still bound, per cent of control (MAPK7 (human)): 0.1% | kinase still bound, per cent of control (TGFBR1 (human)): 100% | kinase still bound, per cent of control (MAP3K11 (human)): 100% | kinase still bound, per cent of control (PRKG2 (human)): 84% | kinase still bound, per cent of control [1]: 82% | kinase still bound, per cent of control (RPS6KA5 KD1 (human)): 86% | kinase still bound, per cent of control (EPHA7 (human)): 92% | kinase still bound, per cent of control (ABL1 (human)): 79% | kinase still bound, per cent of control [2]: 82% | kinase still bound, per cent of control (EPHA5 (human)): 80% | kinase still bound, per cent of control (FGFR2 (human)): 81% | kinase still bound, per cent of control (MAP2K2 (human)): 77% | kinase still bound, per cent of control (CDC42BPA (human)): 98%
Structure (SMILES): COc1cc(N2CCN(C)CC2)ccc1Nc1ncc2c(n1)N(C)c1sccc1C(=O)N2C

kinase still bound, per cent of control (PAK7 (human)): 88% | kinase still bound, per cent of control (PKMYT1 (human)): 100% | kinase still bound, per cent of control (BLK (human)): 100% | kinase still bound, per cent of control (STK38L (human)): 100% | kinase still bound, per cent of control (EPHA4 (human)): 100% | kinase still bound, per cent of control (DCLK1 (human)): 39% | kinase still bound, per cent of control (MAP4K1 (human)): 80% | kinase still bound, per cent of control (SRMS (human)): 84% | kinase still bound, per cent of control (PRKCE (human)): 100% | kinase still bound, per cent of control (WEE1 (human)): 99% | kinase still bound, per cent of control (BMPR1A (human)): 90% | kinase still bound, per cent of control (LATS1 (human)): 74% | kinase still bound, per cent of control (PRKCH (human)): 86% | kinase still bound, per cent of control (RPS6KA4 KD1 (human)): 100% | kinase still bound, per cent of control (MAPK11 (human)): 100% | kinase still bound, per cent of control (BMX (human)): 100% | kinase still bound, per cent of control (MAP3K9 (human)): 100% | kinase still bound, per cent of control (EPHA3 (human)): 97% | kinase still bound, per cent of control (TESK1 (human)): 100% | kinase still bound, per cent of control (PAK1 (human)): 100% | kinase still bound, per cent of control (PAK6 (human)): 100% | kinase still bound, per cent of control (PIK3CA (human)): 100% | kinase still bound, per cent of control (WEE2 (human)): 100% | kinase still bound, per cent of control (MAP3K10 (human)): 100% | kinase still bound, per cent of control (PRKACA (human)): 100% | kinase still bound, per cent of control (PIK3CD (human)): 91% | kinase still bound, per cent of control (STK35 (human)): 100% | kinase still bound, per cent of control (MLTK (human)): 100% | kinase still bound, per cent of control (PRKX (human)): 94% | kinase still bound, per cent of control (MAPK7 (human)): 100% | kinase still bound, per cent of control (TGFBR1 (human)): 100% | kinase still bound, per cent of control (MAP3K11 (human)): 100% | kinase still bound, per cent of control (PRKG2 (human)): 100% | kinase still bound, per cent of control [1]: 100% | kinase still bound, per cent of control (RPS6KA5 KD1 (human)): 99% | kinase still bound, per cent of control (EPHA7 (human)): 100% | kinase still bound, per cent of control (ABL1 (human)): 99% | kinase still bound, per cent of control [2]: 100% | kinase still bound, per cent of control (EPHA5 (human)): 100% | kinase still bound, per cent of control (FGFR2 (human)): 100% | kinase still bound, per cent of control (MAP2K2 (human)): 100% | kinase still bound, per cent of control (CDC42BPA (human)): 90%
Structure (SMILES): CN1C(=O)c2ccccc2N(C)c2nc(NS(=O)(=O)c3ccc(N)cc3)ncc21

kinase still bound, per cent of control (PAK7 (human)): 65% | kinase still bound, per cent of control (PKMYT1 (human)): 100% | kinase still bound, per cent of control (BLK (human)): 100% | kinase still bound, per cent of control (STK38L (human)): 92% | kinase still bound, per cent of control (EPHA4 (human)): 99% | kinase still bound, per cent of control (DCLK1 (human)): 73% | kinase still bound, per cent of control (MAP4K1 (human)): 10% | kinase still bound, per cent of control (SRMS (human)): 86% | kinase still bound, per cent of control (PRKCE (human)): 56% | kinase still bound, per cent of control (WEE1 (human)): 91% | kinase still bound, per cent of control (BMPR1A (human)): 100% | kinase still bound, per cent of control (LATS1 (human)): 84% | kinase still bound, per cent of control (PRKCH (human)): 100% | kinase still bound, per cent of control (RPS6KA4 KD1 (human)): 100% | kinase still bound, per cent of control (MAPK11 (human)): 82% | kinase still bound, per cent of control (BMX (human)): 94% | kinase still bound, per cent of control (MAP3K9 (human)): 94% | kinase still bound, per cent of control (EPHA3 (human)): 67% | kinase still bound, per cent of control (TESK1 (human)): 100% | kinase still bound, per cent of control (PAK1 (human)): 90% | kinase still bound, per cent of control (PAK6 (human)): 17% | kinase still bound, per cent of control (PIK3CA (human)): 49% | kinase still bound, per cent of control (WEE2 (human)): 100% | kinase still bound, per cent of control (MAP3K10 (human)): 100% | kinase still bound, per cent of control (PRKACA (human)): 100% | kinase still bound, per cent of control (PIK3CD (human)): 0% | kinase still bound, per cent of control (STK35 (human)): 79% | kinase still bound, per cent of control (MLTK (human)): 92% | kinase still bound, per cent of control (PRKX (human)): 100% | kinase still bound, per cent of control (MAPK7 (human)): 48% | kinase still bound, per cent of control (TGFBR1 (human)): 48% | kinase still bound, per cent of control (MAP3K11 (human)): 100% | kinase still bound, per cent of control (PRKG2 (human)): 100% | kinase still bound, per cent of control [1]: 95% | kinase still bound, per cent of control (RPS6KA5 KD1 (human)): 100% | kinase still bound, per cent of control (EPHA7 (human)): 97% | kinase still bound, per cent of control (ABL1 (human)): 91% | kinase still bound, per cent of control [2]: 96% | kinase still bound, per cent of control (EPHA5 (human)): 100% | kinase still bound, per cent of control (FGFR2 (human)): 100% | kinase still bound, per cent of control (MAP2K2 (human)): 15% | kinase still bound, per cent of control (CDC42BPA (human)): 73%
Structure (SMILES): O=C1NC(=O)/C(=C/c2c[nH]c(=O)c(-c3ccc(N4CCNCC4)nc3)c2)S1
